The target in assay [1] is BTK enzyme (recombinant full-length BTK, hBTK) (Homo sapiens (Human), UniProt Q06187). Briefly: Btk enzyme activity assay, LANCE TR-FRET. The class given is biochemical. The conditions noted are these: 50 pM hBTK, 2 μM biotin-A5-peptide, 25 μM ATP; 60 minute compound & enzyme incubation; read-out: BTK binding IC50. On the procedure: Btk Enzyme Activity Assay Methods
BTK enzymatic activity was determined with the LANCE (Lanthanide Chelate Excite) TR-FRET (Time-resolved fluorescence resonance energy transfer) assay. […] After 60 minutes incubation with detection reagents, reaction plates were read on a PerkinElmer EnVision plate reader using standard TR-FRET protocol.
Background: TR-FRET usually uses a lanthanide donor and a delayed reading to cut background.

For another assay, the system named is HeLa cells. Briefly: [3H] Adenosine uptake assay. Format: cell-based. The conditions noted are these: accumulation of tritiated adenosine into HeLa cells, compound concentration range 10 μM to 0.032 nM, read-out: ADU inhibition IC50 (adenosine uptake inhibition potency). The method, boiled down: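 HeLa cells in HBSS + 5% FBS preincubated 30 min at ambient temperature with compound (0.25% DMSO), then [3H]adenosine (500 nM stock) added for 60 min. Uptake measured by scintillation proximity counting; IC50 from 4-parameter fit of counts vs log concentration.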

The values below come from patent US10087188B2, “Benzamide imidazopyrazine Btk inhibitors” (MERCK SHARP & DOHME CORP., priority 2014, dated 2018).

Like-named read-outs stand apart in the source and are kept apart here.

BTK enzyme (recombinant full-length BTK, hBTK), sequence (Q06187 whole entry): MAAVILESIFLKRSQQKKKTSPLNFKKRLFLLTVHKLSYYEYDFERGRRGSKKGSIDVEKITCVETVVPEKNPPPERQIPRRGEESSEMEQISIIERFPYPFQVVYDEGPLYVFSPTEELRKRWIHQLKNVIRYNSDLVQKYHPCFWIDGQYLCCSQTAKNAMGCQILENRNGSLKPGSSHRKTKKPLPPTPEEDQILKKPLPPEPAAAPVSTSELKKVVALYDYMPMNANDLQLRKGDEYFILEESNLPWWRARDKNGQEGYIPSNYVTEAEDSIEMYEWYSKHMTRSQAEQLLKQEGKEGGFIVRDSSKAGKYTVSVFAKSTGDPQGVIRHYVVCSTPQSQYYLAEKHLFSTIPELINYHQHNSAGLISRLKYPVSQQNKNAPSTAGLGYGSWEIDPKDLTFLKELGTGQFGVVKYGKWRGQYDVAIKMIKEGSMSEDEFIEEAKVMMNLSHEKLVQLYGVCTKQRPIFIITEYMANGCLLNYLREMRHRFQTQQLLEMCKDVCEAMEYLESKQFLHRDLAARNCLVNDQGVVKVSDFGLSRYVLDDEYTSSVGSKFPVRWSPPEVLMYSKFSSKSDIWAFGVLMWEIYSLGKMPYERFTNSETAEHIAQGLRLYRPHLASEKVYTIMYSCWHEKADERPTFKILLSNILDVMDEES

In general, IC50 refers to the concentration that inhibits the measured activity by half. Regarding `CN1CC[C@@H](c2nc(-c3ccc(C(=O)Nc4cc(C(F)(F)F)ccn4)cc3)c3c(N)nccn23)C[C@H]1C(=O)O` [Example 82, (2S,4R)-4-[8-amino-1-(4-{[4-(trifluoromethyl)pyridin-2-yl]carbamoyl}phenyl)imidazo[1,5-a]pyrazin-3-yl]-1-methylpiperidine-2-carboxylic acid], the IC50 in assay [1] was determined as 1.2 nM; in the assay with HeLa cells (Homo sapiens, HeLa) it was 1730 nM.

In the case of `CN1CC[C@H](c2nc(-c3ccc(C(=O)Nc4cc(C(F)(F)F)ccn4)cc3)c3c(N)nccn23)C[C@@H]1C(=O)O` [Example 83, (2R.4S)-4-[8-amino-1-(4-{[4-(trifluoromethyl)pyridin-2-yl]carbamoyl}phenyl)imidazo[1,5-a]pyrazin-3-yl]-1-methylpiperidine-2-carboxylic acid], the concentration for half-maximal inhibition (IC50) in assay [1] worked out at 10.2 nM; in the assay with HeLa cells (Homo sapiens, HeLa), 1140 nM.

For the compound `CCOc1cc(C(=O)Nc2cc(C(F)(F)F)ccn2)ccc1-c1nc([C@@H]2CC[C@](C)(C(=O)O)C2(C)C)n2ccnc(N)c12` [Example 84, (1S,3R)-3-[8-amino-1-(2-ethoxy-4-{[4-(trifluoromethyl)pyridin-2-yl]carbamoyl}phenyl)imidazo[1,5-a]pyrazin-3-yl]-1,2,2-trimethylcyclopentane carboxylic acid], the IC50 in assay [1] is 0.45 nM; in the assay on HeLa cells (Homo sapiens, HeLa), 7350 nM.

On to `CCOc1cc(C(=O)Nc2cc(C(F)(F)F)ccn2)ccc1-c1nc([C@]2(C)CC[C@@](C)(C(=O)O)C2)n2ccnc(N)c12` [Example 85, (1R,3R)-3-[8-amino-1-(2-ethoxy-4-{[4-(trifluoromethyl)pyridin-2-yl]carbamoyl}phenyl)imidazo[1,5-a]pyrazin-3-yl]-1,3-dimethylcyclopentane carboxylic acid], for which the IC50 in assay [1] was 1.4 nM; in the assay with HeLa cells (Homo sapiens, HeLa) it was 10000 nM.

`CCOc1cc(C(=O)Nc2cc(C(F)(F)F)ccn2)ccc1-c1nc([C@@]2(C)CC[C@@](C)(C(=O)O)C2)n2ccnc(N)c12` [Example 86, (1R,3S)-3-[8-amino-1-(2-ethoxy-4-{[4-(trifluoromethyl)pyridin-2-yl]carbamoyl}phenyl)imidazo[1,5-a]pyrazin-3-yl]-1,3-dimethylcyclopentane carboxylic acid]: the half-maximal inhibitory concentration (IC50) in assay [1] stood at 4.2 nM; with HeLa cells (Homo sapiens, HeLa), 10000 nM.

In the case of `CCOc1cc(C(=O)Nc2cc(C(F)(F)F)ccn2)ccc1-c1nc([C@]2(C)CC[C@](C)(C(=O)O)C2)n2ccnc(N)c12` [Example 87, (1S,3R)-3-[8-amino-1-(2-ethoxy-4-{[4-(trifluoromethyl)pyridin-2-yl]carbamoyl}phenyl)imidazo[1,5-a]pyrazin-3-yl]-1,3-dimethylcyclopentane carboxylic acid], the half-maximal inhibitory concentration (IC50) in assay [1] was 13.9 nM; with HeLa cells (Homo sapiens, HeLa) it was 9790 nM.

In the case of `CCOc1cc(C(=O)Nc2cc(C(F)(F)F)ccn2)ccc1-c1nc([C@@H]2CCC[C@@](C(=O)O)(C(C)C)C2)n2ccnc(N)c12` [Example 88, (1S,3R)-3-[8-amino-1-(2-ethoxy-4-{[4-(trifluoromethyl)pyridin-2-yl]carbamoyl}phenyl)imidazo[1,5-a]pyrazin-3-yl]-1-(1-methylethyl) cyclohexane-carboxylic acid], the IC50 in assay [1] was determined as 38.5 nM; with HeLa cells (Homo sapiens, HeLa), 3690 nM.

`CCOc1cc(C(=O)Nc2cc(C(F)(F)F)ccn2)ccc1-c1nc([C@H]2CCC[C@](C(=O)O)(C(C)C)C2)n2ccnc(N)c12` [Example 90, (1R,3S)-3-[8-amino-1-(2-ethoxy-4-{[4-(trifluoromethyl)pyridin-2-yl]carbamoyl}phenyl)imidazo[1,5-a]pyrazin-3-yl]-1-(1-methylethyl) cyclohexane-carboxylic acid]: the concentration for half-maximal inhibition (IC50) was 1.8 nM in assay [1] and 10000 nM with HeLa cells (Homo sapiens, HeLa).

Turning to `CC(C)[C@]1(C(=O)O)CC[C@H](c2nc(-c3ccc(C(=O)Nc4cc(C(F)(F)F)ccn4)cc3Cl)c3c(N)nccn23)C1` [Example 92, (1S,3S)-3-[8-amino-1-(2-chloro-4-{[4-(trifluoromethyl)pyridin-2-yl]carbamoyl}phenyl)imidazo[1,5-a]pyrazin-3-yl]-1-(1-methylethyl) cyclopentane-carboxylic acid], the IC50 in assay [1] stood at 0.51 nM; in the assay with HeLa cells (Homo sapiens, HeLa) it was 3240 nM.

`CCOc1cc(C(=O)Nc2cc(C(F)(F)F)ccn2)ccc1-c1nc(C2CC3(CC(C(=O)O)C3)C2)n2ccnc(N)c12` (stereo not drawn) [Example 93, 6-[8-amino-1-(2-ethoxy-4-{[4-(trifluoromethyl)pyridin-2-yl]carbamoyl}phenyl)imidazo[1,5-a]pyrazin-3-yl]spiro[3.3]heptane-2-carboxylic acid]: the IC50 in assay [1] was found to be 0.51 nM; with HeLa cells (Homo sapiens, HeLa) it was 4640 nM.

On to `CC(C)(C(=O)O)C1CCC(c2nc(-c3ccc(C(=O)Nc4cc(C(F)(F)F)ccn4)cc3)c3c(N)nccn23)C1` (stereo not drawn) [Example 94, 2-{3-[8-amino-1-(4-{[4-(trifluoromethyl)pyridin-2-yl]carbamoyl}phenyl)imidazo[1,5-a]pyrazin-3-yl]cyclopentyl}-2-methylpropanoic acid], for which the results for the IC50 (in assay [1]; in the assay with HeLa cells) were 1.4 nM and 10000 nM, respectively.

Turning to `CC(C)(C(=O)O)C1CCC(c2nc(-c3ccc(C(=O)Nc4cc(C(F)(F)F)ccn4)cc3)c3c(N)nccn23)C1` (stereo not drawn) [Example 95, 2-{3-[8-amino-1-(4-{[4-(trifluoromethyl)pyridin-2-yl]carbamoyl}phenyl)imidazo[1,5-a]pyrazin-3-yl]cyclopentyl}-2-methylpropanoic acid], the half-inhibitory concentration (IC50) in assay [1] was 1.7 nM; with HeLa cells (Homo sapiens, HeLa) it was 5100 nM.

`CC(C)(C(=O)O)C1CCC(c2nc(-c3ccc(C(=O)Nc4cc(C(F)(F)F)ccn4)cc3)c3c(N)nccn23)C1` (stereo not drawn) [Example 96, 2-{3-[8-amino-1-(4-{[4-(trifluoromethyl)pyridin-2-yl]carbamoyl}phenyl)imidazo[1,5-a]pyrazin-3-yl]cyclopentyl}-2-methylpropanoic acid]: the figures for the IC50 (in assay [1]; with HeLa cells) were 4 nM and 10000 nM, respectively.

In the case of `CC(C)(C(=O)O)C1CCC(c2nc(-c3ccc(C(=O)Nc4cc(C(F)(F)F)ccn4)cc3)c3c(N)nccn23)C1` (stereo not drawn) [Example 97, 2-{3-[8-amino-1-(4-{[4-(trifluoromethyl)pyridin-2-yl]carbamoyl}phenyl)imidazo[1,5-a]pyrazin-3-yl]cyclopentyl}-2-methylpropanoic acid], the IC50 in assay [1] was 0.87 nM; with HeLa cells, 7530 nM.

`CCOc1cc(C(=O)Nc2cc(C(F)(F)F)ccn2)ccc1-c1nc([C@@H]2CC[C@H](C(C)C)[C@H](C(=O)O)C2)n2ccnc(N)c12` [Example 98, (1R,2R,5R)-5-[8-amino-1-(2-ethoxy-4-{[4-(trifluoromethyl)pyridin-2-yl]carbamoyl}phenyl)imidazo[1,5-a]pyrazin-3-yl]-2-(1-methylethyl) cyclohexane-carboxylic acid]: the half-inhibitory concentration (IC50) in assay [1] came to 4 nM; in the assay with HeLa cells (Homo sapiens, HeLa), 8770 nM.

As to `CCOc1cc(C(=O)Nc2cc(C(F)(F)F)ccn2)ccc1-c1nc(C23CCC(C(=O)O)(CC2)C2CC23)n2ccnc(N)c12` (stereo not drawn) [Example 100, 5-[8-amino-1-(2-ethoxy-4-{[4-(trifluoromethyl)pyridin-2-yl]carbamoyl}phenyl)imidazo[1,5-a]pyrazin-3-yl]tricyclo[3.2.2.0~2,4~] nonane-1-carboxylic acid], the IC50 in assay [1] amounted to 0.54 nM; in the assay with HeLa cells (Homo sapiens, HeLa), 4720 nM.

As for `CCOc1cc(C(=O)Nc2cc(C(F)(F)F)ccn2)ccc1-c1nc([C@H]2CC[C@@H](C(C)C)[C@@H](C(=O)O)C2)n2ccnc(N)c12` [Example 101, (1S,2S,5S)-5-[8-amino-1-(2-ethoxy-4-{[4-(trifluoromethyl)pyridin-2-yl]carbamoyl}phenyl)imidazo[1,5-a]pyrazin-3-yl]-2-(1-methylethyl) cyclohexane-carboxylic acid], the IC50 in assay [1] turned out to be 2 nM; with HeLa cells (Homo sapiens, HeLa), 10000 nM.

Turning to `CCOc1cc(C(=O)Nc2cc(C(F)(F)F)ccn2)ccc1-c1nc(C23CCC(C(=O)O)(CC2)C3)n2ccnc(N)c12` [Example 103, 4-[8-amino-1-(2-ethoxy-4-{[4-(trifluoromethyl)pyridin-2-yl]carbamoyl}phenyl)imidazo[1,5-a]pyrazin-3-yl]bicyclo[2.2.1] heptane-1-carboxylic acid], the IC50 was 0.52 nM in assay [1] and 1880 nM with HeLa cells (Homo sapiens, HeLa).

Take `CCOc1cc(C(=O)Nc2cc(C(F)(F)F)ccn2)ccc1-c1nc([C@H]2C[C@H]3CC[C@@H](C2)[C@H]3C(=O)O)n2ccnc(N)c12` [Example 104, (3-endo,8-syn)-3-[8-amino-1-(2-ethoxy-4-{[4-(trifluoromethyl)pyridin-2-yl]carbamoyl}phenyl)imidazo[1,5-a]pyrazin-3-yl]bicyclo[3.2.1] octane-8-carboxylic acid]: the IC50 stood at 5.2 nM in assay [1] and 10000 nM in the assay on HeLa cells (Homo sapiens, HeLa).

Consider `CCOc1cc(C(=O)Nc2cc(C(F)(F)F)ccn2)ccc1-c1nc([C@@H]2C[C@H]3CC[C@@H](C2)[C@H]3C(=O)O)n2ccnc(N)c12` [Example 105, (3-exo,8-syn)-3-[8-amino-1-(2-ethoxy-4-{[4-(trifluoromethyl)pyridin-2-yl]carbamoyl}phenyl)imidazo[1,5-a]pyrazin-3-yl]bicyclo[3.2.1] octane-8-carboxylic acid], for which the 50% inhibitory concentration (IC50) is 1.9 nM in assay [1] and 10000 nM in the assay with HeLa cells (Homo sapiens, HeLa).

As to `CC(C)[C@]1(C(=O)O)CC[C@@H](c2nc(-c3ccc(C(=O)Nc4cc(C(F)(F)F)ccn4)cc3)c3c(N)ncc(Cl)n23)C1` [Example 106, (1S.3R)-3-[8-amino-5-chloro-1-(4-{[4-(trifluoromethyl)pyridin-2-yl]carbamoyl}phenyl)imidazo[1,5-a]pyrazin-3-yl]-1-(1-methylethyl) cyclopentane-carboxylic acid], the IC50 was 0.74 nM in assay [1] and 781 nM in the assay with HeLa cells (Homo sapiens, HeLa).
